Type in all cases: cell-based
The subject of one data set is p53. As to the kind of experiment: Western blot of phospho-p53, p53 and p21. To be noted: U87 cells. As for the experimental part:
(§1) For Western blot analysis, cells were lysed with lysis buffer (20 mM sodium phosphate (pH 7.0), 250 mM NaCl, 30 mM sodium pyrophosphate, 0.1% Nonidet™ P-40, 5 mM EDTA, 10 mM NaF, 0.1 mM Na3VO4, and 1 mM PMSF) supplemented with complete protease inhibitors (Roche™) and homogenized by passage through a 28 gauge needle. Protein concentration was measured with a Bio-Rad™ protein assay dye reagent and results were read using a spectrophotometer (BiophotometerPlus™ by Eppendorf™). Protein extracts were resolved by SDS PAGE on gradient (Thermo Fisher™) or 12% gels. Proteins were then electrotransferred at 350 mA for 80 minutes onto a PVDF membrane (Immobilon-P PVDF). Membranes were blocked with PBST with 5% milk and 1% BSA for 30 minutes. Quantitation of blots was performed Image Studio Lite software (LI-COR Biosciences™).
One of the responses to DNA damage is activation of p53 by ATM. Upon DNA damage, ATM activation leads to p53 phosphorylation, which activates p53 as a transcription factor. Since increased DNA damage was observed upon C9 KD, whether p53 is activated in C9 depleted cells was investigated. First, total p53 levels were measured in U87 cells treated with control and two independent siRNAs against C9. […] Then, the levels of phosphorylated (active) p53 (at s15) was measured. Phosphorylation of s15 on p53 was increased in both C9 siRNA samples.

A further data set has as its system C9. As to the kind of experiment: C9 knock down efficiency by western blot. The conditions noted are these: U87 cells, vs control siRNA. The protocol:
For siRNA knockdown experiments, siRNAs targeting C9 mRNA were designed with the Whitehead website (sirna.wi.mit.edu) and with RNAxs webserver (rna.tbi.univie.ac.at/cgi-bin/RNAxs). All siRNAs were obtained from GenePharma™. Lipofectamine RNAiMAX (Thermo Scientific™) was used as the transfection reagent for all siRNA experiments (according to the manufacturer's instructions). siRNA concentration was 40 nM per 60 mm plate. After 6 hours, media was changed and cells were treated again with siRNA after 48 hours. For RNA and protein analysis, cells were harvested after 48 hours following the second treatment. All KD experiments were performed in three biological replicates. The siRNA sequences were as follows: […] (SEQ ID NO:631; sense) and […] […]
For Western blot analysis, cells were lysed with lysis buffer (20 mM sodium phosphate (pH 7.0), 250 mM NaCl, 30 mM sodium pyrophosphate, 0.1% Nonidet™ P-40, 5 mM EDTA, 10 mM NaF, 0.1 mM Na3VO4, and 1 mM PMSF) supplemented with complete protease inhibitors (Roche™) and homogenized by passage through a 28 gauge needle. Protein concentration was measured with a Bio-Rad™ protein assay dye reagent and results were read using a spectrophotometer (BiophotometerPlus™ by Eppendorf™). […] Quantitation of blots was performed Image Studio Lite software (LI-COR Biosciences™). […]
Background: A western blot detects proteins with antibodies after separation by electrophoresis.

The subject of data set [1] is RAS/RAC1 signaling pathway. In words: Western blot of RAS, RAC1 and phospho-ERK. The conditions noted are these: U87 cells. The protocol:
as §1
Macropinocytosis is reported to be dependent on RAS and/or RAC1 activation, therefore whether the RAS/RAC1 signaling pathway is activated upon C9 KD was explored. First, RAS and RAC1 protein levels were measured in U87 cells upon C9 KD. […] If the RAS/RAC1 pathway is active, then ERK1/2 phosphorylation should be observed. FIG. 14 is a WB of U87 cells treated with control (siCtrl) and C9 siRNA (siC9; SEQ ID NO:631) measuring protein levels of RAS and phospho-ERK and loading control actin (left) and a WB showing RAC1 levels under the same conditions with actin as loading control (right). […] Therefore both macropinocytosis and RAS/RAC1 signaling pathways are a possible therapeutic targets in C9 ALS.

In another data set the test system is p53 null U87 cells. In words: Vacuoles in p53 null U87 clones. The conditions noted are these: p53 null U87 clones KO #4 and KO #9. As for the experimental part: To generate p53 knockout clones, U87 cells (7×10^5) were transfected with 2 μg p53 CRISPR/Cas9 KO plasmid (Santa Cruz Biotech™, sc-416469) using Lipofectamine 2000 (ThermoFisher™). Two days later, cells were treated with Nutlin-3 (10 μM) for 12 days to inhibit proliferation of cells with wild type p53, thereby enriching for p53 knockout cells. Single-cell clones were selected via limiting dilution, and p53 knockout clones were confirmed by western blotting using p53 antibody (FL-393).
C9 then was knocked down with two independent siRNAs in the two U87 p53 null clones. […] See FIG. 33A, which provides phase contrast images (40×) of two clones (KO #4 and KO #9) of p53 null U87 cells generated by CRISPR, treated with control (siCtrl) and C9 (siC9; SEQ ID NO:631) siRNA, and FIG. 33B, a WB showing C9 levels after C9 KD in KO #4 cells.
FIG. 34 is a graph presenting quantitation of data for about 90 cells, indicating the number of vacuoles per cell. Statistical significance was assessed by unpaired t-test: NS P>0.05, *P≤0.05, **P≤0.01, ***P≤0.001 ****P≤0.0001. FIG. 35 is a WB showing PARP1, phospho-ERK and γ-H2AX levels upon C9 KD (siC9; SEQ ID NO:631) in U87 KO #4 cell line.

The test system of the next data set is PARP1 mRNA. As to the kind of experiment: qRT-PCR of PARP1 mRNA. To be noted: U87 cells. The protocol: For most RNA experiments, RNA was isolated from cells using the Qiagen™ RNeasy minikit. Complementary DNA was generated using the Qiagen™ Quantitect™ reverse transcription kit with 0.5 μg of input RNA as measured with a NanoDrop spectrophotometer (Thermo Scientific™). Real-time PCR was carried out on an ABI StepOne Plus™ machine using power SYBR Green dye (Thermo Scientific™). Transcript levels were assayed in triplicate and normalized to RPL32 and HPS90 mRNAs. Relative changes in cDNA levels were calculated using the comparative Ct method (ΔΔCT method). All RT-qPCR primers were designed with Primer3Plus™ or retrieved from Primerbank™. Primer sequences are listed here, including in Table 3. All primers were purchased from Life Technologies™. H. Generation of p53 Knock Out U87 Cell Lines by CRISPR
Statistical significance was assessed by an unpaired t-test: NS P>0.05, *P≤0.05, **P≤0.01, ***P≤0.001 ****P≤0.0001.

For “siC9: siRNA targeting C9 mRNA: UUAAUGAAACAAUAAUCACUC (SEQ ID NO:631; sense) and GUGAUUAUUGUUUCAUUAAUC (SEQ ID NO:632; antisense) (listed as RNA, chemistry not given here)”, in the data set with p53, the p21 protein levels entry is listed as “increased p21 protein levels”, the “phosphorylation of s15 on p53” value is reported as “increased” and the “total p53 levels” value was “elevates p53 levels”. In addition, in the data set with C9, the “C9 expression (western blot)” value is listed as “reduced expression compared to control”. In addition, in data set [1], the RAC1 protein levels entry is on record as “elevated”, the RAS protein levels result is recorded as “elevated” and the “phosphorylation of ERK1/2” value was “increased phosphorylation”. Further, in the data set with p53 null U87 cells, the vacuolization result is “no significant increase in vacuolization”. Besides, in the data set on PARP1 mRNA, the “PARP1 mRNA” value is “significant repression”.

These data come from patent publication US20210108199A1, “Treatment for aggressive cancers by targeting C9ORF72” (The Trustees of Columbia University in the City of New York, priority 2017, published 2021).
